In US11225505B2, “Antimicrobial polymyxin derivative compounds” (MONASH UNIVERSITY, priority 2015, dated 2022) one finds Minimum inhibitory concentration data, which are given here for 7 molecules.

In brackets after ≈: the same amount, converted by molar mass. Where a SMILES comes first, the peptide text is derived from it. Bridges are numbered along the chain shown (N, C = ends). [ ]: non-standard residue; d: D form. The star is where a group is joined. X9 = O=C(c1ccnc(C(F)(F)F)c1)*; X46 = O=C(c1cc(Br)nc(Br)c1)*; X17 = O=C(c1ncc(Br)cc1Cl)*; X36 = O=C(c1ncc(Br)cc1Br)*; X29 = O=C(c1cc(Cl)ccn1)*; Dab = NCC[C@H](N)C(=O)O; X40 = Cc1cncc(C(=O)*)c1; Abu = CC[C@H](N)C(=O)O; Dap = NC[C@H](N)C(=O)O; X8 = O=C(c1ccnc(F)c1)*

Common to all, as to format: cell-based
The subject of experiment [1] is Acinetobacter baumannii FADDI-AB030. The experiment can be described thus: microbe, parasite or virus in culture. The note with it: FADDI-AB030. The method, boiled down: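 Lipopeptide TFA salts tested against the multidrug-resistant clinical isolate by CLSI (M100-S24) broth microdilution in cation-adjusted Mueller-Hinton broth, with polymyxin B sulphate as control; MIC read.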

Experiment [2] deals with Pseudomonas aeruginosa ATCC 27853. The note with it: ATCC 27853. A digest of the protocol: (§1)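 Lipopeptide TFA salts were serially diluted in cation-adjusted Mueller-Hinton broth, inoculated with polymyxin-susceptible Gram-negative bacteria and scored for MIC according to CLSI guidance (M100-S24). Polymyxin B sulphate was included as comparator.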
In experiment [3] the test system is Klebsiella pneumoniae Kp BM1. The note with it: Kp BM1. A digest of the protocol:
(§2)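 Following CLSI procedure M100-S24, minimum inhibitory concentrations of trifluoroacetate lipopeptides are measured in cation-adjusted Mueller-Hinton medium by broth microdilution, alongside a polymyxin B sulphate control.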

For experiment [4], the system named is Pseudomonas aeruginosa FADDI-PA038. The following applies: FADDI-PA038. A digest of the protocol: as §1
Experiment [5] deals with Enterobacter cloacae FADDI-EC001. The following applies: FADDI-EC001. The method, boiled down: as §2
Experiment [6] deals with Klebsiella pneumoniae FADDI-KP032. The following applies: FADDI-KP032. A digest of the protocol: as §1
The subject of experiment [7] is Enterobacter cloacae FADDI-EC003. The following applies: FADDI-EC003. A digest of the protocol: as §1
Experiment [8] relates to Pseudomonas aeruginosa FADDI-PA022. The following applies: FADDI-PA022. The method, boiled down:
as §1

The test system of experiment [9] is Acinetobacter baumannii ATCC 17978. The following applies: ATCC 17978. A digest of the protocol:
as §1

Experiment [10] concerns Acinetobacter baumannii FADDI-AB034. The note with it: FADDI-AB034. The method, boiled down:
as §1

The test system of experiment [11] is Enterobacter cloacae FADDI-EC006. The following applies: FADDI-EC006. A digest of the protocol: as §1
Experiment [12] deals with Pseudomonas aeruginosa FADDI-PA01. The following applies: FADDI-. A digest of the protocol: as §1
Experiment [13] deals with Klebsiella pneumoniae FADDI-KP022. The note with it: FADDI-KP022. The method, boiled down:
as §1

As to `CC[C@@H]1NC(=O)[C@@H](CC(C)C)NC(=O)[C@H](CCN)NC(=O)[C@@H](NC(=O)[C@H](CN)NC(=O)[C@@H](NC(=O)[C@H](CCN)NC(=O)c2cc(Cl)ccn2)[C@@H](C)O)CCNC(=O)[C@H]([C@@H](C)O)NC(=O)[C@H](CCN)NC(=O)[C@H](CCN)NC1=O` [Compound 26] (X29-[Dab]T[Dap][Dab][Dab][dL][Abu][Dab][Dab]T; lactam 4-C), the Minimum inhibitory concentration is 0.5 µg/mL (≈ 0.444 µM) in experiment [1]; 0.25 µg/mL (≈ 0.222 µM) in experiment [2]; 0.25 µg/mL (≈ 0.222 µM) in [3]; 0.5 µg/mL (≈ 0.444 µM) in [4]; 0.25 µg/mL (≈ 0.222 µM) in [5]; 0.25 µg/mL (≈ 0.222 µM) in experiment [6]. The Minimum inhibitory concentration in experiment [7] was less than 0.125 µg/mL; in experiment [8], 0.25 µg/mL (≈ 0.222 µM); in experiment [9] it was 0.5 µg/mL (≈ 0.444 µM); in experiment [10] it was 0.5 µg/mL (≈ 0.444 µM); in experiment [11], 2 µg/mL (≈ 1.78 µM); in [12] it was 0.25 µg/mL (≈ 0.222 µM). Further, the Minimum inhibitory concentration in [13] is less than 0.125 µg/mL.

With `CC[C@@H]1NC(=O)[C@@H](CC(C)C)NC(=O)[C@H](CCN)NC(=O)[C@@H](NC(=O)[C@H](CN)NC(=O)[C@@H](NC(=O)[C@H](CCN)NC(=O)c2cc(Br)nc(Br)c2)[C@@H](C)O)CCNC(=O)[C@H]([C@@H](C)O)NC(=O)[C@H](CCN)NC(=O)[C@H](CCN)NC1=O` [Compound 28] (X46-[Dab]T[Dap][Dab][Dab][dL][Abu][Dab][Dab]T; lactam 4-C), the Minimum inhibitory concentration in experiment [1] came to 0.25 µg/mL (≈ 0.2 µM); in experiment [2] it was 0.25 µg/mL (≈ 0.2 µM); in experiment [3], 0.25 µg/mL (≈ 0.2 µM); in [4], 1 µg/mL (≈ 0.8 µM); in [5], 0.25 µg/mL (≈ 0.2 µM); in [6], 0.25 µg/mL (≈ 0.2 µM). Besides, the Minimum inhibitory concentration is 0.25 µg/mL (≈ 0.2 µM) in experiment [7]; 0.25 µg/mL (≈ 0.2 µM) in [8]; 0.25 µg/mL (≈ 0.2 µM) in experiment [9]; 0.25 µg/mL (≈ 0.2 µM) in [10]; less than 0.125 µg/mL in experiment [11]; 1 µg/mL (≈ 0.8 µM) in [12]. In addition, the Minimum inhibitory concentration in experiment [13] is less than 0.125 µg/mL.

On to `CC(C)C[C@H]1NC(=O)[C@H](CCN)NC(=O)[C@@H](NC(=O)[C@H](CN)NC(=O)[C@@H](NC(=O)[C@H](CCN)NC(=O)c2ncc(Br)cc2Br)[C@@H](C)O)CCNC(=O)[C@H]([C@@H](C)O)NC(=O)[C@H](CCN)NC(=O)[C@H](CCN)NC(=O)[C@H]([C@@H](C)O)NC1=O` [Compound 29] (X36-[Dab]T[Dap][Dab][Dab][dL]T[Dab][Dab]T; lactam 4-C), for which the Minimum inhibitory concentration in [1] came to 1 µg/mL (≈ 0.79 µM); in experiment [2] it was 1 µg/mL (≈ 0.79 µM); in experiment [3], 0.5 µg/mL (≈ 0.395 µM); in experiment [4] it was 1 µg/mL (≈ 0.79 µM); in experiment [5], 0.25 µg/mL (≈ 0.197 µM); in experiment [6], 1 µg/mL (≈ 0.79 µM). Besides, the Minimum inhibitory concentration is 0.25 µg/mL (≈ 0.197 µM) in [7]; 0.25 µg/mL (≈ 0.197 µM) in experiment [8]; 2 µg/mL (≈ 1.58 µM) in [9]; 2 µg/mL (≈ 1.58 µM) in experiment [10]; less than 0.125 µg/mL in experiment [11]; 0.5 µg/mL (≈ 0.395 µM) in experiment [12]. The molecule further returned a Minimum inhibitory concentration in experiment [13] of 0.25 µg/mL (≈ 0.197 µM).

For `CC[C@@H]1NC(=O)[C@@H](CC(C)C)NC(=O)[C@H](CCN)NC(=O)[C@@H](NC(=O)[C@H](CN)NC(=O)[C@@H](NC(=O)[C@H](CCN)NC(=O)c2cncc(C)c2)[C@@H](C)O)CCNC(=O)[C@H]([C@@H](C)O)NC(=O)[C@H](CCN)NC(=O)[C@H](CCN)NC1=O` [Compound 30] (X40-[Dab]T[Dap][Dab][Dab][dL][Abu][Dab][Dab]T; lactam 4-C), the Minimum inhibitory concentration is 4 µg/mL (≈ 3.62 µM) in experiment [1]; 0.5 µg/mL (≈ 0.452 µM) in [2]; 1 µg/mL (≈ 0.904 µM) in experiment [3]; 1 µg/mL (≈ 0.904 µM) in [4]; 0.5 µg/mL (≈ 0.452 µM) in experiment [5]; 2 µg/mL (≈ 1.81 µM) in experiment [6]. Also, the Minimum inhibitory concentration was determined as 0.5 µg/mL (≈ 0.452 µM) in experiment [7]; 0.5 µg/mL (≈ 0.452 µM) in experiment [8]; 8 µg/mL (≈ 7.23 µM) in [9]; 4 µg/mL (≈ 3.62 µM) in experiment [10]; 2 µg/mL (≈ 1.81 µM) in experiment [11]; 0.5 µg/mL (≈ 0.452 µM) in [12]. Further, the Minimum inhibitory concentration in experiment [13] was found to be 0.25 µg/mL (≈ 0.226 µM).

Turning to `CC[C@@H]1NC(=O)[C@@H](CC(C)C)NC(=O)[C@H](CCN)NC(=O)[C@@H](NC(=O)[C@H](CN)NC(=O)[C@@H](NC(=O)[C@H](CCN)NC(=O)c2ccnc(F)c2)[C@@H](C)O)CCNC(=O)[C@H]([C@@H](C)O)NC(=O)[C@H](CCN)NC(=O)[C@H](CCN)NC1=O` [Compound 31] (X8-[Dab]T[Dap][Dab][Dab][dL][Abu][Dab][Dab]T; lactam 4-C), the Minimum inhibitory concentration in [1] was 2 µg/mL (≈ 1.8 µM); in [2], 0.25 µg/mL (≈ 0.225 µM); in [3], 1 µg/mL (≈ 0.901 µM); in experiment [4], 0.5 µg/mL (≈ 0.45 µM); in experiment [5], 0.5 µg/mL (≈ 0.45 µM); in [6] it was 1 µg/mL (≈ 0.901 µM). For the same molecule, the Minimum inhibitory concentration in [7] was found to be 0.5 µg/mL (≈ 0.45 µM); in experiment [8], 0.25 µg/mL (≈ 0.225 µM); in experiment [9], 2 µg/mL (≈ 1.8 µM); in experiment [10] it was 2 µg/mL (≈ 1.8 µM); in [11], 1 µg/mL (≈ 0.901 µM); in experiment [12], 0.25 µg/mL (≈ 0.225 µM). Also, the Minimum inhibitory concentration in experiment [13] was less than 0.125 µg/mL.

Regarding `CC(C)C[C@H]1NC(=O)[C@H](CCN)NC(=O)[C@@H](NC(=O)[C@H](CN)NC(=O)[C@@H](NC(=O)[C@H](CCN)NC(=O)c2ccnc(C(F)(F)F)c2)[C@@H](C)O)CCNC(=O)[C@H]([C@@H](C)O)NC(=O)[C@H](CCN)NC(=O)[C@H](CCN)NC(=O)[C@H]([C@@H](C)O)NC1=O` [Compound 32] (X9-[Dab]T[Dap][Dab][Dab][dL]T[Dab][Dab]T; lactam 4-C; N-terminus assumed), the Minimum inhibitory concentration is 1 µg/mL (≈ 0.85 µM) in experiment [1]; 0.5 µg/mL (≈ 0.425 µM) in experiment [2]; 1 µg/mL (≈ 0.85 µM) in experiment [3]; 0.5 µg/mL (≈ 0.425 µM) in experiment [4]; 1 µg/mL (≈ 0.85 µM) in [5]; 0.25 µg/mL (≈ 0.213 µM) in experiment [6]. The Minimum inhibitory concentration in [7] turned out to be 0.5 µg/mL (≈ 0.425 µM); in [8], 0.5 µg/mL (≈ 0.425 µM); in experiment [9], 4 µg/mL (≈ 3.4 µM); in experiment [10] it was 2 µg/mL (≈ 1.7 µM); in [11], 1 µg/mL (≈ 0.85 µM); in experiment [12], 1 µg/mL (≈ 0.85 µM). This molecule came in with a Minimum inhibitory concentration in experiment [13] of less than 0.125 µg/mL.

On to `CC[C@@H]1NC(=O)[C@@H](CC(C)C)NC(=O)[C@H](CCN)NC(=O)[C@@H](NC(=O)[C@H](CN)NC(=O)[C@@H](NC(=O)[C@H](CCN)NC(=O)c2ncc(Br)cc2Cl)[C@@H](C)O)CCNC(=O)[C@H]([C@@H](C)O)NC(=O)[C@H](CCN)NC(=O)[C@H](CCN)NC1=O` [Compound 33] (X17-[Dab]T[Dap][Dab][Dab][dL][Abu][Dab][Dab]T; lactam 4-C), for which the Minimum inhibitory concentration in experiment [1] was 0.5 µg/mL (≈ 0.415 µM); in experiment [2] it was 0.25 µg/mL (≈ 0.207 µM); in experiment [3] it was less than 0.125 µg/mL; in experiment [4], 0.5 µg/mL (≈ 0.415 µM); in [5], less than 0.125 µg/mL; in [6], less than 0.125 µg/mL. For the same molecule, the Minimum inhibitory concentration in experiment [7] was less than 0.125 µg/mL; in experiment [8], 0.25 µg/mL (≈ 0.207 µM); in [9], 0.5 µg/mL (≈ 0.415 µM); in [10], 0.5 µg/mL (≈ 0.415 µM); in [11], less than 0.125 µg/mL; in experiment [12], 0.25 µg/mL (≈ 0.207 µM). The same molecule came in with a Minimum inhibitory concentration in [13] of less than 0.125 µg/mL.
